Our source for the IC50 and relative binding affinity (RBA) values is ChEMBL document CHEMBL1124923, “A novel, nonsteroidal inhibitor of androgen binding to the rat androgen binding protein: diethyl [[[3-(2,6-dimethyl-4-pyridinyl)-4-fluorophenyl]amino]methylene] propanedioate” (J Med Chem, 1990).

As usually defined, the IC50 is the concentration that inhibits the measured activity by half.

One test has as its target T1, Sex hormone-binding globulin (Rattus norvegicus, UniProt P08689).
T1 sequence (P08689 whole entry): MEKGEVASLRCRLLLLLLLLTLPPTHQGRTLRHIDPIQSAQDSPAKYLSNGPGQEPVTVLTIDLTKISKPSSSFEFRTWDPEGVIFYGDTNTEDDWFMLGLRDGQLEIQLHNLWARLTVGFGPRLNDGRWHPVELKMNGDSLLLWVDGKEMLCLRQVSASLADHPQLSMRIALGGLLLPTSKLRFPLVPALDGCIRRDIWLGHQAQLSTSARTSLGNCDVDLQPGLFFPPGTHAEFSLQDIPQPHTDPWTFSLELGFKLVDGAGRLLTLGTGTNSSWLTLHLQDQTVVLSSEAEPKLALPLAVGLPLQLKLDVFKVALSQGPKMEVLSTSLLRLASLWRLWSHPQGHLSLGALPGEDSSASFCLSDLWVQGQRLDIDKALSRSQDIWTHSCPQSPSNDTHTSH
Put plainly: Inhibition of rat androgen binding protein (rABP) (n=9).
As to `C[C@]1(O)CC[C@H]2[C@@H]3CCC4=CC(=O)CCC4=C3C=C[C@@]21C` [METRIBOLONE], the half-maximal inhibitory concentration (IC50) turned out to be 3.7 nM.

The next test deals with T2, Sex hormone-binding globulin (Homo sapiens) (UniProt P04278).
T2 sequence (whole entry): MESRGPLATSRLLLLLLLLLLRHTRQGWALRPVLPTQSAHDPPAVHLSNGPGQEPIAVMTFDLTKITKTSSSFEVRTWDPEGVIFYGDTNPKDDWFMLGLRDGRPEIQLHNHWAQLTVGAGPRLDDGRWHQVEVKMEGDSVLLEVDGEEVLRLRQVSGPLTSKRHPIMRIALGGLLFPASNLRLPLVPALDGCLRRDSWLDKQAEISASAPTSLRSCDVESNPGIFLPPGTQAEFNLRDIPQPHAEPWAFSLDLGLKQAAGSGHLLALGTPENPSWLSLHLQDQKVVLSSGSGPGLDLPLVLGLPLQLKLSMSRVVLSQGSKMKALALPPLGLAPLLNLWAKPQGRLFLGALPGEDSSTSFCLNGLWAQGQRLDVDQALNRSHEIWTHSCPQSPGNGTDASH
Put plainly: In vitro relative binding affinity against hSHBG (human sex hormone binding globulin).
Regarding `Cc1cc2c(c(C)n1)c(=O)oc1ccccc12`, the relative binding affinity (RBA) was less than 0.01. `CCOC(=O)C(/C=N/c1ccc(F)c(-c2cc(C)nc(C)c2)c1)=C(/O)OCC` returned a relative binding affinity (RBA) of less than 0.01. Still for that read-out and setting: as for `CCOC(=O)C(/C=N/c1cccc(-c2cc(C)nc(C)c2)c1)=C(\O)OCC`, the figure is less than 0.01; as for `Cc1cc(-c2cc([N+](=O)[O-])ccc2F)cc(C)n1`, less than 0.01. Still for that read-out and setting: as for `Cc1cc(-c2ccccc2F)cc(C)n1`, the figure is less than 0.01. Same read-out and setting: with `Cc1cc(-c2cc(N)ccc2F)cc(C)n1` the figure was less than 0.01. In turn, `C[C@]1(O)CC[C@H]2[C@@H]3CCC4=CC(=O)CCC4=C3C=C[C@@]21C` [METRIBOLONE] gave a relative binding affinity (RBA) of 0.2.
